What was measured:
human NR1/NR2B = human NR1/NR2B (Homo sapiens (Human), UniProt Q05586+Q13224); assay: NR2B antagonist activity, Fluo-4 calcium influx in HEK293 cells; type: cell-based
Protocol: HEK293 cell lines stably expressing cloned human NR1/NR2B and NR1/NR2A, respectively, were established according to standard previously described methods (Hansen et al., Comb. Chem High Throughput Screen. 11:304, 2008). Activation of the NR2A or NR2B subtype of NMDA receptor with glutamate as an agonist and glycine co-agonist on these cells results in calcium influx, which can be monitored with fluorescent indicator Fluo-4.
For experiments, the cells were seeded onto poly-D-lysine-coated 96-well black plates with clear bottom (Corning) at a density of ˜50,000 cells/well. After overnight culture, the growth medium was removed from the wells and the cells were incubated at 37° C. for 60 min in Hanks buffer containing 4 μM fluo-4-AM (Invitrogen) and 0.1% bovine serum albumin (BSA). After dye-loading, the cells were washed three times with Hanks buffer and incubated for 10 min at room temperature with various concentrations of test compounds prepared in Hanks buffer with 0.1% BSA. The cell plates were placed onto FDSS pCell fluorescence reader (Hamamatsu). After 20 sec reading of background fluorescence, agonist glutamate at final 100 μM and co-agonist glycine at final 50 μM were added to the cells to activate the receptor, and the resulting fluorescence changes were recorded and quantified. Based on the changes in fluorescence intensity, the pharmacological effect of test compounds were analyzed and the IC50 values derived from a non-linear least squares fitting of the concentration-dependent response to a standard logistic equation using Prism (Graphpad, Inc): Amplitude=Max Amplitude/(1+(IC50/[antagonist])^n).

hERG channel = hERG channel (Homo sapiens (Human), UniProt Q12809); assay: hERG channel inhibition, whole cell patch clamp in HEK293 cells; type: cell-based
hERG channel, sequence (Q12809 whole entry): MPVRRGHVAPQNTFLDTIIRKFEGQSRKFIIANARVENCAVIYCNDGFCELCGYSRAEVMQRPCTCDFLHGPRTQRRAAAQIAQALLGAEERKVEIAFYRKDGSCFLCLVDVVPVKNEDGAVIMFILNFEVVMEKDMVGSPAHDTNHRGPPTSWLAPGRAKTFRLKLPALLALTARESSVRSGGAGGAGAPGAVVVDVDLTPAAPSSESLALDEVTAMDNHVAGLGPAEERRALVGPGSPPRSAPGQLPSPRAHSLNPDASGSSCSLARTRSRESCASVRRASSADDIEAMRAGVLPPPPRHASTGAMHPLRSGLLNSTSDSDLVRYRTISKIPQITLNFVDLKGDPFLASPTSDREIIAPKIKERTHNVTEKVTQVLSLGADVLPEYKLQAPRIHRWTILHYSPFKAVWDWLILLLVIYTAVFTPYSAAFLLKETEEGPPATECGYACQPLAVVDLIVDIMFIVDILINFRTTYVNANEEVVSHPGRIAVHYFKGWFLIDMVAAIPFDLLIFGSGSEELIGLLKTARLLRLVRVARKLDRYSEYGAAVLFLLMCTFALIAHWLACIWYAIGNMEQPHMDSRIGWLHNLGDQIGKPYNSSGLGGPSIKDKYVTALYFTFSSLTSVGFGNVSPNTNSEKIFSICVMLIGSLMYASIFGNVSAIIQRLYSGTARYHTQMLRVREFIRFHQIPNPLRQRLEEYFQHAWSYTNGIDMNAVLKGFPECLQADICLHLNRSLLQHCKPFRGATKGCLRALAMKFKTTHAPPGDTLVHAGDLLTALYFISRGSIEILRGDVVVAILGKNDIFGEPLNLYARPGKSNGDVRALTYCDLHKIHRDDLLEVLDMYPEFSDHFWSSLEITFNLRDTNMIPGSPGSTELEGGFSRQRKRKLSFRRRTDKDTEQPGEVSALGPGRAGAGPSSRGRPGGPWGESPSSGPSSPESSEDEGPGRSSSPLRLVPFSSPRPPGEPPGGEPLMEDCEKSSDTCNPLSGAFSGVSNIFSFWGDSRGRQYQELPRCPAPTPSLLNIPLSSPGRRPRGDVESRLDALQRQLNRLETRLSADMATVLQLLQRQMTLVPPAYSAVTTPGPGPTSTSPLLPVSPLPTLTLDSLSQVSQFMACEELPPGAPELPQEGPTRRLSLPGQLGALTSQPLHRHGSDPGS
Protocol: The assay was performed on hERG channel stably expressed in HEK293 cells. The cells were cultured at 37° C. in a humidified CO2 incubator in the growth medium consisting of DMEM, 10% fetal bovine serum and antibiotics. Prior to the assay, the cells were seeded onto a 12 mm PDL-coated glass coverslip and cultured in a 35 mm Petri dish. After 16 to 40 hr culture, the cover slip was transferred into the chamber of OctaFlow perfusion system (ALA Instrument) and under a constant flow of extracellular solution (140 mM NaCl, 4 mM KCl, 1 mM MgCl2, 2 mM CaCl2, 10 mM HEPES, 10 mM D-glucose, pH 7.35, osmolarity 290). Whole cell patch clamping was performed with a glass micropipette filled with intracellular solution (120 mM KCl, 1.75 mM MgCl2, 5.4 mM CaCl2, 10 mM HEPES, 10 mM EGTA, and 4 mM ATP-K2, PH 7.2, osmolarity 310). Giga-seal was maintained during the test. The voltage control and current measurement were carried out using Axon amplifier 700B, Digidata 1440A and CLAMPEX10 software (Molecular Devices). Whole-cell hERG currents were recorded following the Petroski protocol: the cell was held at −80 mV, and the voltage step jumped from −80 to 30 mV and stay for 2 sec with a 20 ms prepulse at −40 mV. After depolarization, the voltage was decreased to −40 mV and stay for 2 sec, and returned back to −80 mV. Test compound was applied by quartz capillary tubes tip (200 μm inner diameter), and the flow rate was controlled at 2-3 ml/min with OctaFlow perfusion system. Different concentrations of the compound were applied to the cells for 5 min and the hERG current was measured three times before, during and after compound treatment. The data were analyzed using Clampfit 10 software (Molecular Devices) to generate IC50 values.

[1] = test system: 6 Hz electrically induced seizures; assay: 6 Hz Seizure Test; type: in vivo; conditions: for forelimb seizure score, change vs vehicle control: mice
Protocol: Mice were administered a rectangular current (44 mA, rectangular pulse: 0.2 ms pulse width, 3 s duration, 6 Hz) via corneal electrodes connected to a constant current shock generator (Ugo Basile: type 7801). The results for the number of seizures as reflected by forelimb clonus were recorded during the first minute following current administration. Forelimb clonus was scored as absent (0), mild (1) and strong (2). 15 mice were studied per group. The test was performed partially blind (test substance vs vehicle). […] Quantitative data (scores) with the test substance was analyzed by comparing treated groups with vehicle control using Kruskall-Wallis test followed by Mann-Whitney U tests.

[2] = test system: formalin-induced nociceptive behavior; assay: Rat Formalin Model; type: in vivo; conditions: rats, 10, 30 and 60 mpk i.p., mesylate salt
Protocol: The rat formalin model is a tonic model of continuous pain resulting from formalin-induced spontaneous nociceptive behaviors. Intra-paw injection of formalin is a commonly used model to measure spontaneous nociceptive behaviors in rodents (Dubuisson, D. and Dennis, S. G. Pain 4:161, 1977). Subcutaneous plantar injection of formalin causes a bi-phasic nocifensive behavioral response in rodents. The early phase (phase-1) lasts for about 5-10 min following which an interphase occurs without any discernible nociceptive reactions after which the late phase (phase-II) nociceptive reaction ensues continuing from about 20-60 min following formalin injection. Formalin model is a model of tonic, persistent pain, and is widely used for rapid screening of novel analgesic compounds. […] In the present example, effects of test item were assessed in 0-5 minutes from the early phase (phase-I) and 20-35 minutes from the late phase (phase-II) of formalin-induced nociceptive behavior. […]
For all groups, animals were acclimated to the observation chamber for 15 minutes immediately prior to formalin injection. All animals received an intraplantar subcutaneous injection of 50 μL of 5% formalin into the left hind paw and then placed immediately into an observation chamber and formalin-evoked spontaneous nociceptive behaviors in the rats were continuously recorded for 0-60 min using a commercial camcorder. […]

human NR1/NR2B, sequence (Q13224 27-1484, other chains not shown): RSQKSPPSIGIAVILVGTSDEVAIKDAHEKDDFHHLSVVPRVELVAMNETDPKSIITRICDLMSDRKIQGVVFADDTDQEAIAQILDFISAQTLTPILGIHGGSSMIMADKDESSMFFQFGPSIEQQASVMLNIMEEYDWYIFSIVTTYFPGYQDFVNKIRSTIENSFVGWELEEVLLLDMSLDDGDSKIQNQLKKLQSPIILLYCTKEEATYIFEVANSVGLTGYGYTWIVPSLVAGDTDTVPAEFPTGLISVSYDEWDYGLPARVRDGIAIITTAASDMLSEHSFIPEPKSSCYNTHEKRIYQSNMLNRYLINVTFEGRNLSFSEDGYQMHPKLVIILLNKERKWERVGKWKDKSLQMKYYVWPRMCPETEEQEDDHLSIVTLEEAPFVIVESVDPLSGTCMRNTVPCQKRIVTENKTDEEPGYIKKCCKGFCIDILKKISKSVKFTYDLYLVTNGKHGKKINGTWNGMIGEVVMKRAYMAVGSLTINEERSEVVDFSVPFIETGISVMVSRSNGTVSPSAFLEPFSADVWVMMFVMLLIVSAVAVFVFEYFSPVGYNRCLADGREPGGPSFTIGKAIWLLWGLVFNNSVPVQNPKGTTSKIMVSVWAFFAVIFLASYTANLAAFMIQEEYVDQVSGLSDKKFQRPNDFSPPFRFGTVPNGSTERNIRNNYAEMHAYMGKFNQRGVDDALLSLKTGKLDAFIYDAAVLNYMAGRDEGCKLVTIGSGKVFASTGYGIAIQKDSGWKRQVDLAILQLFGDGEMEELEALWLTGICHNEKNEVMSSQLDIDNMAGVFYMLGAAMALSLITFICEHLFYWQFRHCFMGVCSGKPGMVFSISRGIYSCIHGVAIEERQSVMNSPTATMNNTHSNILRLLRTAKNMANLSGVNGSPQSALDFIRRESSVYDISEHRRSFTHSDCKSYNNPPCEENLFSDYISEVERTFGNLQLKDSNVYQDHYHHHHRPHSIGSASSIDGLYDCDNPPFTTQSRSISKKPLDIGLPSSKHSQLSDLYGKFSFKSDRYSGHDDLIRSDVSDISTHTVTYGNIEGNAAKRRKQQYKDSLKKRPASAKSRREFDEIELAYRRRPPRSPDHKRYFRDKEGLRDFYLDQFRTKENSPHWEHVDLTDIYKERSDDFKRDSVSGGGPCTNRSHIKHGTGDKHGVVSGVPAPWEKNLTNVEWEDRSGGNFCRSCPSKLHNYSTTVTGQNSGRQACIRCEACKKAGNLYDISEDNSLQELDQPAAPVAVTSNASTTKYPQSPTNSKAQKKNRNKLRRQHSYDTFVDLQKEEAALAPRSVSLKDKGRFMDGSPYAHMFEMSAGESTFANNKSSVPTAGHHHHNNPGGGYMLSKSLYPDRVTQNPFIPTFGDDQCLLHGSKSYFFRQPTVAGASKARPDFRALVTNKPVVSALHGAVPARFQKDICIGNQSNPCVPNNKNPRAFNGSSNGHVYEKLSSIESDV

Cc1ccc(COC(=O)N2CC[C@H](CNc3nccn4cnnc34)C(F)(F)C2)cc1 [Compound E1-1.2, (+)-R-4-methylbenzyl 4-(([1,2,4]triazolo[4,3-a]pyrazin-8-ylamino)methyl)-3,3-difluoropiperidine-1-carboxylate]
IC50 (human NR1/NR2B; Table 2.1, HEK293 human NR1/NR2B, glutamate 100 μM, glycine 50 μM): 0.021 µM | IC50 (human NR1/NR2B; Table 2.2): 0.021 µM | IC50 (human NR1/NR2B; Table 2.3): 0.021 µM | hERG @ 10 μM (%) (hERG channel; 10 μM): 17% | IC50 (hERG channel; HEK293, whole cell patch clamp): 40 µM | number of mice with Straub tail, change vs vehicle control ([1]; 10 mg/kg p.o., NS): −13% | number of mice with Straub tail, change vs vehicle control ([1]; 30 mg/kg p.o.): −40% | forelimb seizure score, change vs vehicle control ([1]; 10 mg/kg p.o. 30 minutes before the test): −50% | forelimb seizure score, change vs vehicle control ([1]; 30 mg/kg p.o. 30 minutes before the test): −70% | cumulative time spent on nociceptive behavior in phase I (0-5 mins) [2]: decreased | cumulative time spent on nociceptive behavior in phase II (20-35 mins) [2]: decreased

Source: patent US10294230B2, “3,3-difluoropiperidine carbamate heterocyclic compounds as NR2B NMDA receptor antagonists” (Rugen Holdings (Cayman) Limited, priority 2015, dated 2019)
